Reference: US6540976B1, “Method for reducing radiation toxicity” (The Board of Trustees of the University of Arkansas, priority 1997, dated 2003)

Tests used:
[1] = test system: T-cell; conditions: cited from earlier work
[2] = in vivo; cited from earlier work
[3] = test system: neutrophils; conditions: cited from earlier work
[4] = test system: radiation enteropathy (irradiated small bowel); experiment: Rat small bowel radiation enteropathy model, single dose irradiation; assay type: in vivo, rats
Protocol: A 4-cm segment of distal ileum was sutured to the inside of the scrotum in orchiectomized male rats, thus forming an artificial “scrotal hernia”. The afferent bowel was divided 10 cm proximal to the “hernia”, an end ileostomy was prepared, and intestinal continuity was restored by end-to-side anastomosis. The intestine in the “hernia” was subsequently exposed to 0, 18, or 21 Gy single dose, or 8 daily fractions of 5.6 Gy (total dose 44.8 Gy), external beam X-irradiation. […] Mucosal injury was monitored non-invasively by assessment of granulocyte marker protein (GMP) excretion. Irradiated and shielded intestine were procured 2 weeks after irradiation and assessed for structural changes by histopathologic scoring, and for TGF-β, IL-1α, and ED-2 macrophage antigen immunoreactivity. Radiation injury scores are Ad the sum of 7 different histopathologic parameters graded according to severity. Intestinal wall thickness was measured with light microscopy and a stage micrometer. Intestinal wall TGF-β immunoreactivity levels were measured with computerized image analysis, and the number of ED-2 positive cells (macrophages) were counted with a light microscope and fields were determined according to a predetermined grid pattern.

[5] = test system: radiation enteropathy (irradiated small bowel); experiment: Rat small bowel radiation enteropathy model, fractionated radiation; assay type: in vivo, rats; conditions: 8 x 5.6 Gy, 30 mg/kg q.d. for 14 days
Protocol: A 4-cm segment of distal ileum was sutured to the inside of the scrotum in orchiectomized male rats, thus forming an artificial “scrotal hernia”. The afferent bowel was divided 10 cm proximal to the “hernia”, an end ileostomy was prepared, and intestinal continuity was restored by end-to-side anastomosis. The intestine in the “hernia” was subsequently exposed to 0, 18, or 21 Gy single dose, or 8 daily fractions of 5.6 Gy (total dose 44.8 Gy), external beam X-irradiation. Orazipone or vehicle was injected through the stoma from 3 days prior to 2 weeks after irradiation. Mucosal injury was monitored non-invasively by assessment of granulocyte marker protein (GMP) excretion. Irradiated and shielded intestine were procured 2 weeks after irradiation and assessed for structural changes by histopathologic scoring, and for TGF-β, IL-1α, and ED-2 macrophage antigen immunoreactivity. Radiation injury scores are Ad the sum of 7 different histopathologic parameters graded according to severity. Intestinal wall thickness was measured with light microscopy and a stage micrometer. Intestinal wall TGF-β immunoreactivity levels were measured with computerized image analysis, and the number of ED-2 positive cells (macrophages) were counted with a light microscope and fields were determined according to a predetermined grid pattern.
To evaluate the effects of Orazipone following fractionated radiation, the transposed loop of small bowel was exposed to sham-irradiation or 8 daily fractions of 5.6 Gy (total dose 44.8 Gy). Orazipone (30 mg/kg q.d.) or vehicle was delivered for 14 days in 2 separate experimental groups. Group 1 received the drug during and after irradiation (radiation day 2 through post-radiation day 7), while Group 2 received the drug only after irradiation (post-radiation days 0 through 13). All animals were euthanized on post-radiation day 14.

[6] = test system: mononuclear cells; conditions: cited from earlier work
[7] = single dose irradiation, vs vehicle-treated controls, p<0.01
[8] = given either during or after irradiation

CC(=O)C(=Cc1ccc(S(C)(=O)=O)cc1)C(C)=O [Orazipone]
T-cell proliferation and IL-2 release [1]: reduces
fate of absorbed drug (metabolism) [2]: broken down into inactive metabolites very quickly
NADPH oxidase and LTB4 production by neutrophils [3]: suppresses
TGF-β overexpression ([4]; 30 mg/kg daily for 1 week after a single dose of 21 Gy): significantly attenuated
frequency of subacute severe small bowel radiation toxicity ([4]; 30 mg/kg daily for 1 week after a single dose of 21 Gy, reduced from 80% (control)): 25%
GMP excretion ([4]; single dose irradiation): not significantly affected
macrophage accumulation ([4]; single dose irradiation): not significantly affected
extracellular matrix-associated TGF-β immunoreactivity [4, 7]: less
histopathologic injury of irradiated intestine [4, 7]: less
intestinal wall thickening ([4]; single dose irradiation, vs vehicle-treated controls, p<0.05): less
IL-1α positive cells ([4]; single dose irradiation, vs vehicle-treated controls, p=0.05): less
subacute radiation enteropathy as assessed by Radiation Injury Score [5, 8]: significantly ameliorated
subacute radiation enteropathy as assessed by extracellular matrix-associated TGF-β immunoreactivity [5, 8]: significantly ameliorated
subacute radiation enteropathy as assessed by intestinal wall thickness [5, 8]: significantly ameliorated
extent of mucosal injury (mucosal surface area measurements) ([5]; among the treatment groups): did not differ
release of IL-1α, IL-1β and TNFα from mononuclear cells [6]: inhibits
